Test results taken from patent US20240301408A1, “MICRORNA 195 COMPOSITIONS AND METHODS FOR TREATING COGNITIVE IMPAIRMENT” (UNITED STATES GOVERNMENT AS REPRESENTED BY THE DEPARTMENT …, priority 2021, published 2024).

How the values were obtained:
BV2 cells [1] = experiment: LPS-induced gene expression (pdcd4, smad7, il10a) in BV2 microglia with miR-195-5p over-expression; format: cell-based
Procedure: (§1) For example, LPS (at 0.2 μg/ml) treatment for overnight in BV2 cells leads to increased expression of pdcd4 and smad7 (FIG. 13A) and reduced expression of il10ra (FIG. 13C). […] Over-expression of miR-195-5p also attenuates LPS-induced pro-inflammatory cytokine release (IL-6 and TNFα; FIG. 13B). […] For these experiments, purified exosomes were derived from human APOE3/3 and 4/4 iPSC-derived astrocytes w/wo miR-195 over-expression detected by an exosome marker, ALIX. Fluorescence labeled exosomes were taken up by IBA1+ microglia cells.
(§2) Over-expression of miR-195-5p in microglia inhibits LPS-induced proinflammatory responses and augments anti-inflammatory responses. […] However, over-expression of miR-195-5p reduces expression levels of pdcd4 and smad7 and increases il10a expression in the presence of LPS. Over-expression of miR-195-5p also attenuates LPS-induced pro-inflammatory cytokine release (IL-6 and TNFα; FIG. 17B).

pTau, total Tau = experiment: brain pTau and total Tau in EFAD mice after miR-195-5p over-expression; format: in vivo; details: ApoE4+/+ FAD mouse hippocampus
Procedure: (§3) Stereotaxic injection and behavior studies. Eight to nine weeks old male and female ApoE3^+/+ and ApoE4^+/+ KI mice without 5×FAD background (N=19-23/group), or with 5×FAD background (N=15-17/group) were placed in the stereotaxic apparatus with AAV2 or scramble virus administered into the dorsal CA1 regions of bilateral hippocampal brain regions using pressure injection (Labonte B et al., Nat Med 2017, and Passini M A et al., The Journal of neuroscience 2006). Injection volumes (0.5-2.0 μl) were delivered over 10 min to avoid tissue damage. […]
(§4) Brain and neuronal sample preparation and biochemical analysis. […] Levels of Aβ42, Aβ40, pTau, Tau and ApoE were determined using high-sensitive ELISA kits. […]
(§5) Statistical analysis. […] Levels of miR-195-5p and miR-374 were normalized to U6 and RNU6B (internal controls) while synj1 mRNA normalized to GAPDH and 18s, and then expressed as Log2fold of changes when compared to controls. Levels of synj1, dyn1, pTau, Tau, and holoAPP were normalized to β-actin levels and expressed as a percentage of the control. Absolute Aβ42, Aβ40, pTau, Tau, and ApoE concentrations were quantitatively determined by ELISA and expressed as a percentage of the control. […] Pearson correlation coefficients were calculated to determine the linear relationship between the two variables. […]

synj1 = experiment: brain synj1 mRNA and protein levels in ApoE KI mice after miR-195 over-expression; format: in vivo, mouse
Procedure: (§6) Stereotaxic injection and behavior studies. Eight to nine weeks old male and female ApoE3^+/+ and ApoE4^+/+ KI mice without 5×FAD background (N=19-23/group), or with 5×FAD background (N=15-17/group) were placed in the stereotaxic apparatus with AAV2 or scramble virus administered into the dorsal CA1 regions of bilateral hippocampal brain regions using pressure injection (Labonte B et al., Nat Med 2017, and Passini M A et al., The Journal of neuroscience 2006). Injection volumes (0.5-2.0 μl) were delivered over 10 min to avoid tissue damage. Six to nine months after viral delivery, mice were tested with the NOR task (Zhu L et al., Proc Natl Acad Sci USA 2015, Elder G A et al., J Neurotrauma 2012, and Howlett D R et al., Brain Res 2004). Mice were randomized for genotype and sex, and blinded throughout the behavior data collection and analysis, surgical manipulations, and sample collection.
(§7) Brain and neuronal sample preparation and biochemical analysis. Snap-frozen mouse hemi-brains or cultured neurons were harvested in lysis buffer (Lane R F et al., The Journal of neuroscience 2010) and processed via step-wise solubilization (Lane R F et al., The Journal of neuroscience 2010, and Kawarabayashi T et al. The Journal of neuroscience 2001) followed by SDS-PAGE to determine levels of synj1, dyn1, holoAPP, and CTFs. Levels of Aβ42, Aβ40, pTau, Tau and ApoE were determined using high-sensitive ELISA kits. Some tissue was used for miRNA and RNA extraction followed by qPCR and RNA-seq analysis. […]
as §5

Aβ / amyloid plaque = experiment: brain oligomer Aβ42, soluble Aβ and amyloid plaque burden in EFAD mice after miR-195-5p over-expression; format: in vivo, mouse
Procedure: as §6, §7, §5

[2] = test system: lysosomes of ApoE4+/+ astrocytes; experiment: lysosome size (Lysotracker, confocal) in iPSC-derived astrocytes; format: cell-based, human; details: control 36.5 μm^2
Procedure: Mouse Neuronal and human iPSC culture. Primary cortical neurons were cultured (Zhu L et al., Proc Natl Acad Sci USA 2015, and Zhu L et al., J Biol Chem 2013) before being fixed and stained for confocal microscopy analysis (Zeiss LSM) (Berg I et al., Nat Protoc 2010). In some conditions, bovine serum albumin (BSA) or receptor-associated protein (RAP) was included in the cultured media (N=3/group). Alternatively, cultured neurons were transfected with adeno-associated virus 2 (AAV2)-containing miR-195-5p or miR-374 or scramble controls for 5 days before subjected to analysis. The ApoE4^+/+ and ApoE3^+/+ iPSCs were differentiated into neural progenitor cells (NPCs) by dual SMAD inhibition followed by neural rosette selection and forebrain-specific patterning by 20 ng/ml FGF2 exposure (Bowles K R et al., PloS one 2019, and Tcw J et al., Stem cell reports 2017). These NPCs were purified by MACS for CD271^−/CD133^+ (Bowles K R et al., PloS one 2019) and differentiated to cortical neurons (Bardy C et al., Proc Natl Acad Sci USA 2015, and Paquet D et al., Nature 2016) and a homogeneous population of astrocytes (Tcw J et al., Stem cell reports 2017, and Shaltouki A et al., Stem Cells 2013) before subjected to viral transfection and confocal microscopy analysis. […]

[3] = test system: endogenous mouse Aβ40 or Aβ42; experiment: endogenous brain Aβ40 / Aβ42 levels in ApoE KI mice after miR-195 over-expression; format: in vivo; details: ApoE4+/+ or ApoE3+/+ mouse brains
Procedure: as §3, §4, §5

BV2 cells [4] = experiment: LPS-induced pro-inflammatory cytokine release (IL-6, TNFα) in BV2 microglia with miR-195-5p over-expression; format: cell-based
Procedure: as §1, §2

[5] = ApoE4+/+ and ApoE3+/+ FAD mouse brains

Sequence: UAGCAGCACAGAAAUAUUGGC (chemistry not given here) [miR-195-5p, over-expressed via AAV2-containing miR-195-5p from ABM Inc]
- expression levels of pdcd4 and smad7 (BV2 cells [1]; LPS overnight): dramatically reduces
- il10a expression (BV2 cells [1]; in the presence of LPS): increases
- p-Tau (pTau, total Tau): reduction
- synj1 mRNA and protein levels (synj1; ApoE3+/+ mouse brains): Trends of reduction
- synj1 mRNA (synj1; ApoE4+/+ mouse brains, scramble controls 0.52): −1.29 Log 2FC
- synj1 protein (synj1; ApoE4+/+ mouse brains, scramble controls 77.7): 56.4 % of control
- amyloid plaque burden (plaque numbers and plaque density) (Aβ / amyloid plaque; [5]): dramatic reduction
- brain oligomer Aβ42 measured by ELISA (Aβ / amyloid plaque; [5]): dramatic reduction
- soluble Aβ40, Aβ42 levels (Aβ / amyloid plaque; E4FAD and E3FAD mouse brains): no significant changes
- average size of lysosomes (area) [2]: no significant differences
- endogenous Aβ40 or Aβ42 levels [3]: No significant changes
- endogenous Aβ40 or Aβ42 levels ([3]; listed as miR-195): no significant changes
- LPS-induced pro-inflammatory cytokine release (IL-6 and TNFα) (BV2 cells [4]): attenuates
